Test results published in ChEMBL document CHEMBL1955725, “Structure-guided lead optimization of triazolopyrimidine-ring substituents identifies potent Plasmodium falciparum dihydroorotate dehydrogenase inhibitors with clinical candidate potential” (J Med Chem, 2011).
Values after ≈ are worked out from the molar mass of the structure shown.

tested on: Plasma; assay: Plasma protein binding in human by chromatographic method; format: ADME, cell-free; settings: not given

Compound	PPB
Cc1cc(Nc2ccc(S(F)(F)(F)(F)F)cc2)n2nc(C3CC3)nc2n1	97.7%
Cc1cc(Nc2ccc(Cl)cc2)n2nc(C(C)(F)F)nc2n1	87.9%
CCC(F)(F)c1nc2nc(C)cc(Nc3ccc(C(F)(F)F)cc3)n2n1	93.2%
CCC(F)(F)c1nc2nc(C)cc(Nc3ccc(S(F)(F)(F)(F)F)cc3)n2n1	97.7%
COCc1nc2nc(C)cc(Nc3ccc(C(F)(F)F)cc3)n2n1	75.6%
COCc1nc2nc(C)cc(Nc3ccc(S(F)(F)(F)(F)F)cc3)n2n1	91.7%
CCOc1nc2nc(C)cc(Nc3ccc(C(F)(F)F)cc3)n2n1	92.4%
CCOc1nc2nc(C)cc(Nc3ccc(S(F)(F)(F)(F)F)cc3)n2n1	97.7%

tested on: Liver microsomes; assay: Intrinsic clearance in human liver microsomes; format: ADME, Microsome; settings: not given

Compound	Intrinsic clearance
Cc1cc(Nc2ccc(S(F)(F)(F)(F)F)cc2)n2nc(C3CC3)nc2n1	< 5 µL/min/mg
Cc1cc(Nc2ccc(Cl)cc2)n2nc(C(C)(F)F)nc2n1	16 µL/min/mg
CCC(F)(F)c1nc2nc(C)cc(Nc3ccc(C(F)(F)F)cc3)n2n1	< 5 µL/min/mg
CCC(F)(F)c1nc2nc(C)cc(Nc3ccc(S(F)(F)(F)(F)F)cc3)n2n1	< 5 µL/min/mg
COCc1nc2nc(C)cc(Nc3ccc(C(F)(F)F)cc3)n2n1	6.7 µL/min/mg
COCc1nc2nc(C)cc(Nc3ccc(S(F)(F)(F)(F)F)cc3)n2n1	5.6 µL/min/mg
CCOc1nc2nc(C)cc(Nc3ccc(C(F)(F)F)cc3)n2n1	7 µL/min/mg
CCOc1nc2nc(C)cc(Nc3ccc(S(F)(F)(F)(F)F)cc3)n2n1	< 5 µL/min/mg

tested on: Liver; assay: Intrinsic clearance in mouse liver microsomes; format: ADME, Microsome; settings: not given

Compound	Intrinsic clearance
Cc1cc(Nc2ccc(S(F)(F)(F)(F)F)cc2)n2nc(C3CC3)nc2n1	12.6 µL/min/mg
Cc1cc(Nc2ccc(Cl)cc2)n2nc(C(C)(F)F)nc2n1	62.8 µL/min/mg
CCC(F)(F)c1nc2nc(C)cc(Nc3ccc(C(F)(F)F)cc3)n2n1	6.5 µL/min/mg
CCC(F)(F)c1nc2nc(C)cc(Nc3ccc(S(F)(F)(F)(F)F)cc3)n2n1	6.7 µL/min/mg
COCc1nc2nc(C)cc(Nc3ccc(C(F)(F)F)cc3)n2n1	13.3 µL/min/mg
COCc1nc2nc(C)cc(Nc3ccc(S(F)(F)(F)(F)F)cc3)n2n1	14.3 µL/min/mg
CCOc1nc2nc(C)cc(Nc3ccc(C(F)(F)F)cc3)n2n1	14.4 µL/min/mg
CCOc1nc2nc(C)cc(Nc3ccc(S(F)(F)(F)(F)F)cc3)n2n1	11.3 µL/min/mg

tested on: not listed separately; assay: Terminal elimination half life in Swiss outbred mouse at 10 mg/kg, po; format: ADME, organism-based; parameters: dose 10 mg/kg, route oral; settings: in vivo, read-out: beta t1/2 (converted)

Compound	half-life
CCC(F)(F)c1nc2nc(C)cc(Nc3ccc(C(F)(F)F)cc3)n2n1	3.1 h

tested on: not listed separately; assay: Cmax in Swiss outbred mouse at 10 mg/kg, po; format: ADME, organism-based; parameters: dose 10 mg/kg, route oral; settings: in vivo

Compound	Cmax
CCC(F)(F)c1nc2nc(C)cc(Nc3ccc(C(F)(F)F)cc3)n2n1	3.5 µM

tested on: not listed separately; assay: AUC (0 to infinity) in Swiss outbred mouse plasma at 10 mg/kg, po; format: ADME, organism-based; parameters: time infinity, dose 10 mg/kg, route oral; settings: not given

Compound	AUC(0-inf)
CCC(F)(F)c1nc2nc(C)cc(Nc3ccc(C(F)(F)F)cc3)n2n1	10.9 µM·h

tested on: Mus musculus; assay: Time plasma concentration remained above 1 uM in Swiss outbred mouse plasma at 10 mg/kg, po; format: ADME, organism-based; parameters: dose 10 mg/kg, route oral; settings: in vivo

Compound	Time
CCC(F)(F)c1nc2nc(C)cc(Nc3ccc(C(F)(F)F)cc3)n2n1	4 h

tested on: not listed separately; assay: Terminal elimination half life in Swiss outbred mouse at 20 mg/kg, po; format: ADME, organism-based; parameters: dose 20 mg/kg, route oral; settings: in vivo, read-out: beta t1/2 (converted)

Compound	half-life
CCOc1nc2nc(C)cc(Nc3ccc(C(F)(F)F)cc3)n2n1	1.4 h
CCOc1nc2nc(C)cc(Nc3ccc(S(F)(F)(F)(F)F)cc3)n2n1	2.7 h

tested on: not listed separately; assay: Cmax in Swiss outbred mouse at 20 mg/kg, po; format: ADME, organism-based; parameters: dose 20 mg/kg, route oral; settings: in vivo

Compound	Cmax
CCOc1nc2nc(C)cc(Nc3ccc(C(F)(F)F)cc3)n2n1	5.8 µM
CCOc1nc2nc(C)cc(Nc3ccc(S(F)(F)(F)(F)F)cc3)n2n1	1.1 µM

tested on: Mus musculus; assay: Time plasma concentration remained above 1 uM in Swiss outbred mouse plasma at 20 mg/kg, po; format: ADME, organism-based; parameters: dose 20 mg/kg, route oral; settings: in vivo

Compound	Time
CCOc1nc2nc(C)cc(Nc3ccc(C(F)(F)F)cc3)n2n1	6 h
CCOc1nc2nc(C)cc(Nc3ccc(S(F)(F)(F)(F)F)cc3)n2n1	3 h

tested on: not listed separately; assay: AUC (0 to infinity) in Swiss outbred mouse plasma at 20 mg/kg, po; format: ADME, organism-based; parameters: time infinity, dose 20 mg/kg, route oral; settings: not given

Compound	AUC(0-inf)
CCOc1nc2nc(C)cc(Nc3ccc(C(F)(F)F)cc3)n2n1	20.7 µM·h
CCOc1nc2nc(C)cc(Nc3ccc(S(F)(F)(F)(F)F)cc3)n2n1	10.1 µM·h

tested on: not listed separately; assay: Inhibition of Plasmodium berghei C-terminal hexa-His tagged DHODH expressed in Escherichia coli by DCIP reduction assay; settings: not given

Compound	IC50
Cc1cc(Nc2ccc(S(F)(F)(F)(F)F)cc2)n2nc(C3CC3)nc2n1	2000 nM
Cc1cc(Nc2ccc(Cl)cc2)n2nc(C(C)(F)F)nc2n1	1700 nM
CCC(F)(F)c1nc2nc(C)cc(Nc3ccc(C(F)(F)F)cc3)n2n1	2500 nM
CCC(F)(F)c1nc2nc(C)cc(Nc3ccc(S(F)(F)(F)(F)F)cc3)n2n1	4700 nM
COCc1nc2nc(C)cc(Nc3ccc(C(F)(F)F)cc3)n2n1	5500 nM
COCc1nc2nc(C)cc(Nc3ccc(S(F)(F)(F)(F)F)cc3)n2n1	3300 nM
CCOc1nc2nc(C)cc(Nc3ccc(C(F)(F)F)cc3)n2n1	2700 nM
CCOc1nc2nc(C)cc(Nc3ccc(S(F)(F)(F)(F)F)cc3)n2n1	470 nM

tested on: Plasmodium falciparum; assay: Antimalarial activity against Plasmodium falciparum 3D7 by [3H]hypoxanthine incorporation assay in presence of human serum; format: functional, organism-based; settings: not given

Compound	EC50
Cc1cc(Nc2ccc(S(F)(F)(F)(F)F)cc2)n2nc(C3CC3)nc2n1	500 nM
Cc1cc(Nc2ccc(Cl)cc2)n2nc(C(C)(F)F)nc2n1	50 nM
CCC(F)(F)c1nc2nc(C)cc(Nc3ccc(C(F)(F)F)cc3)n2n1	45 nM
CCC(F)(F)c1nc2nc(C)cc(Nc3ccc(S(F)(F)(F)(F)F)cc3)n2n1	550 nM
COCc1nc2nc(C)cc(Nc3ccc(C(F)(F)F)cc3)n2n1	1000 nM
COCc1nc2nc(C)cc(Nc3ccc(S(F)(F)(F)(F)F)cc3)n2n1	2100 nM
CCOc1nc2nc(C)cc(Nc3ccc(C(F)(F)F)cc3)n2n1	58 nM
CCOc1nc2nc(C)cc(Nc3ccc(S(F)(F)(F)(F)F)cc3)n2n1	100 nM

tested on: not listed separately; assay: Lipophilicity, log D of the compound at pH 7.4; format: physicochemical; settings: buffer

Compound	logD
Cc1cc(Nc2ccc(S(F)(F)(F)(F)F)cc2)n2nc(C3CC3)nc2n1	3.5
Cc1cc(Nc2ccc(Cl)cc2)n2nc(C(C)(F)F)nc2n1	3
CCC(F)(F)c1nc2nc(C)cc(Nc3ccc(C(F)(F)F)cc3)n2n1	3.6
CCC(F)(F)c1nc2nc(C)cc(Nc3ccc(S(F)(F)(F)(F)F)cc3)n2n1	3.9
COCc1nc2nc(C)cc(Nc3ccc(C(F)(F)F)cc3)n2n1	2.5
COCc1nc2nc(C)cc(Nc3ccc(S(F)(F)(F)(F)F)cc3)n2n1	2.8
CCOc1nc2nc(C)cc(Nc3ccc(C(F)(F)F)cc3)n2n1	3.1
CCOc1nc2nc(C)cc(Nc3ccc(S(F)(F)(F)(F)F)cc3)n2n1	3.4

tested on: not listed separately; assay: Aqueous solubility of the compound at pH 6.5; format: physicochemical; settings: not given

Compound	solubility
Cc1cc(Nc2ccc(S(F)(F)(F)(F)F)cc2)n2nc(C3CC3)nc2n1	16 µM (≈ 6.26 µg/mL)
Cc1cc(Nc2ccc(Cl)cc2)n2nc(C(C)(F)F)nc2n1	77 µM (≈ 24.9 µg/mL)
CCC(F)(F)c1nc2nc(C)cc(Nc3ccc(C(F)(F)F)cc3)n2n1	17 µM (≈ 6.31 µg/mL)
CCC(F)(F)c1nc2nc(C)cc(Nc3ccc(S(F)(F)(F)(F)F)cc3)n2n1	15 µM (≈ 6.44 µg/mL)
COCc1nc2nc(C)cc(Nc3ccc(C(F)(F)F)cc3)n2n1	150 µM (≈ 50.6 µg/mL)
COCc1nc2nc(C)cc(Nc3ccc(S(F)(F)(F)(F)F)cc3)n2n1	63 µM (≈ 24.9 µg/mL)
CCOc1nc2nc(C)cc(Nc3ccc(C(F)(F)F)cc3)n2n1	19 µM (≈ 6.41 µg/mL)
CCOc1nc2nc(C)cc(Nc3ccc(S(F)(F)(F)(F)F)cc3)n2n1	4 µM (≈ 1.58 µg/mL)

biological target: T1, Dihydroorotate dehydrogenase (Plasmodium falciparum, UniProt Q54A96); assay: not given; settings: not given
T1 sequence (Q54A96 whole entry): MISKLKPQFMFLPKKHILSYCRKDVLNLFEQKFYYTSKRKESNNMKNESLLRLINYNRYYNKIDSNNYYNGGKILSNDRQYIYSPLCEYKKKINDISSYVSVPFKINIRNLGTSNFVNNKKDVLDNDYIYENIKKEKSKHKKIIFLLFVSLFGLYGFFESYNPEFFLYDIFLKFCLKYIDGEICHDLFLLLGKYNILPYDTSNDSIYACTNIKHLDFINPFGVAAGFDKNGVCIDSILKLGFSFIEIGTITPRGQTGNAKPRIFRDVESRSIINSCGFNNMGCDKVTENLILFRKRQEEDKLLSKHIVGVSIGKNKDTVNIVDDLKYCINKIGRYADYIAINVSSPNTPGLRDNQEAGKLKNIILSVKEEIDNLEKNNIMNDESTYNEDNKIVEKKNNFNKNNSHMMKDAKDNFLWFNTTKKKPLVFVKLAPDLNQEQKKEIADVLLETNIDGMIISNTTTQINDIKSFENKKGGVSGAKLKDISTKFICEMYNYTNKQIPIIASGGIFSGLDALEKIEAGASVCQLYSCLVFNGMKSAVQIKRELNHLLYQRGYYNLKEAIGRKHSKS

Compound	IC50
Cc1cc(Nc2ccc(Cl)cc2)n2nc(C(C)(F)F)nc2n1	38 nM
CCC(F)(F)c1nc2nc(C)cc(Nc3ccc(C(F)(F)F)cc3)n2n1	19 nM
COCc1nc2nc(C)cc(Nc3ccc(C(F)(F)F)cc3)n2n1	410 nM
COCc1nc2nc(C)cc(Nc3ccc(S(F)(F)(F)(F)F)cc3)n2n1	390 nM
CCOc1nc2nc(C)cc(Nc3ccc(C(F)(F)F)cc3)n2n1	56 nM
CCOc1nc2nc(C)cc(Nc3ccc(S(F)(F)(F)(F)F)cc3)n2n1	57 nM

biological target: Dihydroorotate dehydrogenase (quinone), mitochondrial (Homo sapiens, UniProt Q02127); assay: not given; settings: not given
Sequence (Q02127 whole entry): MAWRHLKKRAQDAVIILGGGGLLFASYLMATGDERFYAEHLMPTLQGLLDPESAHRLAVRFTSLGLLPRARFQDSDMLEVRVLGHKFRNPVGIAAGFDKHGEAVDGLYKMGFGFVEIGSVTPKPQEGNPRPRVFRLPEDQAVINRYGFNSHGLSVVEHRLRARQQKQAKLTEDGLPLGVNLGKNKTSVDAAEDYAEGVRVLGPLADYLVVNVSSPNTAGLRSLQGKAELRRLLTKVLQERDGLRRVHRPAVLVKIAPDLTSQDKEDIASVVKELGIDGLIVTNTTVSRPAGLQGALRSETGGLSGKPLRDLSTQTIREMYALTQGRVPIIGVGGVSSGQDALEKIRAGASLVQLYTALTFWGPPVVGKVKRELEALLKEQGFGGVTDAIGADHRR

Compound	IC50
Cc1cc(Nc2ccc(S(F)(F)(F)(F)F)cc2)n2nc(C3CC3)nc2n1	> 100000 nM
Cc1cc(Nc2ccc(Cl)cc2)n2nc(C(C)(F)F)nc2n1	> 100000 nM
CCC(F)(F)c1nc2nc(C)cc(Nc3ccc(C(F)(F)F)cc3)n2n1	> 100000 nM
CCC(F)(F)c1nc2nc(C)cc(Nc3ccc(S(F)(F)(F)(F)F)cc3)n2n1	> 100000 nM
CCOc1nc2nc(C)cc(Nc3ccc(C(F)(F)F)cc3)n2n1	> 100000 nM
CCOc1nc2nc(C)cc(Nc3ccc(S(F)(F)(F)(F)F)cc3)n2n1	> 100000 nM

tested on: not listed separately; assay: in vivo; settings: Swiss outbred, mouse, po, 10 mg/kg

Compound	Tmax
CCC(F)(F)c1nc2nc(C)cc(Nc3ccc(C(F)(F)F)cc3)n2n1	0.5 h

tested on: not listed separately; assay: in vivo; settings: Swiss outbred, mouse, po, 20 mg/kg

Compound	Tmax
CCOc1nc2nc(C)cc(Nc3ccc(C(F)(F)F)cc3)n2n1	1 h
CCOc1nc2nc(C)cc(Nc3ccc(S(F)(F)(F)(F)F)cc3)n2n1	1 h
